The target of assay [1] is T1, Recombinant full-length human IDO1 (Homo sapiens, UniProt P14902).
T1 construct: Recombinant full-length human IDO1 with a N-terminal hexahistidine tag; hexahistidine (His6) (N); made in house; host or cells: E. coli
Kind of assay: IDO1 enzymatic assay (NFK quantified by LCMS). The class given is biochemical. The following applies: 2 nM enzyme, 5 μM L-tryptophan, pH6.5, 30 minutes pre-incubation at RT; mean values when measured multiple times; read-out: hIDO activity (IC50 in nM). The procedure, abridged: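 IC50 comes from four-parameter logistic fits of duplicate data, with NFK quantified by LCMS and normalized to L-Trp-(indole-d5). Compound (0.5 nM–10 μM) was preincubated 30 min at RT with 2 nM E. coli-expressed IDO1 before a 30 min reaction with 5 μM tryptophan in pH 6.5 buffer containing ascorbate and methylene blue.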

Assay [2] concerns the target T2, Recombinant human TDO comprising amino acids 19-407 (Homo sapiens, UniProt P48775).
T2 construct: Recombinant human TDO comprising amino acids 19-407 with a N-terminal hexahistidine tag; hexahistidine (His6) (N); made in house; host or cells: E. coli
Nature of the assay: TDO2 enzymatic assay (NFK quantified by LCMS). Format: biochemical. As to conditions: 15 nM enzyme, 200 μM L-tryptophan, pH7, 30 minutes pre-incubation at RT; mean values when measured multiple times; read-out: hTDO activity (IC50 in nM). The procedure, abridged: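 NFK formed over 30 min at RT from 200 μM L-tryptophan was measured by LCMS, normalized to d5-tryptophan, after compound (0.5 nM–10 μM, duplicates, 0.6% DMSO) was preincubated 30 min with 15 nM recombinant His-tagged TDO 19-407 in phosphate buffer pH 7. IC50 from four-parameter logistic fit; repeats averaged.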

T1 sequence (P14902 whole entry): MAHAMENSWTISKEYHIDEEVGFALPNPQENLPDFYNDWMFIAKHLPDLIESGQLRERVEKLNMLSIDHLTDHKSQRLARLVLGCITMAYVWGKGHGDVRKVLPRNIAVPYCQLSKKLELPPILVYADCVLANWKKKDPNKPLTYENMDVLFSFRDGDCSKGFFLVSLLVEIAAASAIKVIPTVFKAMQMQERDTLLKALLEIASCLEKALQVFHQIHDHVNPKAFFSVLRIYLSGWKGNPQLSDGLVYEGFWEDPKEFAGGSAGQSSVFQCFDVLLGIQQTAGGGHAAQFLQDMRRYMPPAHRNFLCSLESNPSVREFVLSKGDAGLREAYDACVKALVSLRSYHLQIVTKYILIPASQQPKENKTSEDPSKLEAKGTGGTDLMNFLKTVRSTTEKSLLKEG
T2 sequence (P48775 19-406 limits assumed): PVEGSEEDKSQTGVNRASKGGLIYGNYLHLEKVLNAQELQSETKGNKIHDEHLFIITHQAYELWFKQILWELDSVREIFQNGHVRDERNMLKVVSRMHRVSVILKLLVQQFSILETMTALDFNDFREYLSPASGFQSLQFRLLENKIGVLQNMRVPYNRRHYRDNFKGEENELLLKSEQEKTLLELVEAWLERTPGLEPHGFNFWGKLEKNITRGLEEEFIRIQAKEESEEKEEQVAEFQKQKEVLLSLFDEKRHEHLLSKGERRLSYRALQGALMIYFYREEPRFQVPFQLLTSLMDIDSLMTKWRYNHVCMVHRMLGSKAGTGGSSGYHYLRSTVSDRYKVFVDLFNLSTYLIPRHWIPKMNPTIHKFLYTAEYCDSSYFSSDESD

Broadly, the IC50 is the concentration that gives 50% inhibition. Take `CCNS(=O)(=O)c1ccc(-n2cc(C(O)c3c(CC)sc4cncn34)nn2)cc1` (racemic) [Example 244, rac-N-Ethyl-4-{4-[(2-ethyl-imidazo[5,1-b]thiazol-3-yl)-hydroxy-methyl]-[1,2,3]triazol-1-yl}-benzenesulfonamide]: the half-maximal inhibitory concentration (IC50) in assay [1] was 47.2 nM; in assay [2] it was > 10200 nM.
For `Cn1nncc1-c1ccc(C(O)c2c(C3CC3)sc3cncn23)s1` (racemic) [Example 174, rac-(2-Cyclopropyl-imidazo[5,1-b]thiazol-3-yl)-[5-(3-methyl-3H-[1,2,3]triazol-4-yl)-thiophen-2-yl]-methanol] the same measures were 279 nM and 7710 nM.
For `CC(C)(CO)COc1ccc(-n2cc(C(O)c3c(C4CC4)sc4cncn34)nn2)cc1` (racemic) [Example 141, rac-3-(4-{4-[(2-Cyclopropyl-imidazo[5,1-b]thiazol-3-yl)-hydroxy-methyl]-[1,2,3]triazol-1-yl}-phenoxy)-2,2-dimethyl-propan-1-ol] the same measures were 27.2 nM and > 10200 nM.
As to `OC(c1cnn(-c2cccnc2)c1)c1c(C2CC2)sc2cncn12` (racemic) [Example 260, rac-(2-Cyclopropyl-imidazo[5,1-b]thiazol-3-yl)-(1-pyridin-3-yl-1H-pyrazol-4-yl)-methanol], the figures for the half-maximal inhibitory concentration (IC50) in assay [1] and in assay [2] were 43.2 nM and 6510 nM, respectively.
The matching figures for `OCCCOc1ccc(-n2cc([C@H](O)c3c(C4CC4)sc4cncn34)nn2)cc1Cl` [Example 275, 3-(2-Chloro-4-{4-[(R)-(2-cyclopropyl-imidazo[5,1-b]thiazol-3-yl)-hydroxy-methyl]-[1,2,3]triazol-1-yl}-phenoxy)-propan-1-ol]: 7.03 nM and > 10200 nM.
On to `OC(c1cn(-c2cnc(OC3CCC3)nc2)nn1)c1c(C2CC2)sc2cncn12` (racemic) [Example 83, rac-[1-(2-Cyclobutoxy-pyrimidin-5-yl)-1H-[1,2,3]triazol-4-yl]-(2-cyclopropyl-imidazo[5,1-b]thiazol-3-yl)-methanol], for which the results for the IC50 in assay [1] and in assay [2] were 10.9 nM and > 10200 nM, respectively.
For `COc1ccc(-n2cc(C(O)c3c(C4CC4)sc4cncn34)nn2)c(OC)n1` (racemic) [Example 81, rac-(2-Cyclopropyl-imidazo[5,1-b]thiazol-3-yl)-[1-(2,6-dimethoxy-pyridin-3-yl)-1H-[1,2,3]triazol-4-yl]-methanol], the half-inhibitory concentration (IC50) was 36.1 nM in assay [1] and > 10200 nM in assay [2].
With `Cc1c(C(O)c2c(C3CC3)sc3cncn23)nnn1-c1ccccc1` (racemic) [Example 101, rac-(2-Cyclopropyl-imidazo[5,1-b]thiazol-3-yl)-(5-methyl-1-phenyl-1H-[1,2,3]triazol-4-yl)-methanol], the IC50 in assay [1] was 17 nM; in assay [2] it was 7150 nM.
For the compound `COc1ccc(-n2cc(C(O)c3c(C(C)(F)F)sc4cncn34)nn2)cc1` (racemic) [Example 257, rac-[2-(1,1-Difluoro-ethyl)-imidazo[5,1-b]thiazol-3-yl]-[1-(4-methoxy-phenyl)-1H-[1,2,3]triazol-4-yl]-methanol], the 50% inhibitory concentration (IC50) in assay [1] was 17.5 nM; in assay [2], > 10200 nM.
As for `CC1(c2sc3cncn3c2C(O)c2cn(-c3ccc(O)c(Cl)c3)nn2)CC1` (racemic) [Example 324, rac-2-Chloro-4-(4-{hydroxy-[2-(1-methyl-cyclopropyl)-imidazo[5,1-b]thiazol-3-yl]-methyl}-[1,2,3]triazol-1-yl)-phenol], the values for the IC50 in assay [1] and in assay [2] were 12.1 nM and 9820 nM, respectively.
Turning to `Cc1cccc(-n2cc(C(O)c3c(C4CC4)sc4cncn34)nn2)c1` (racemic) [Example 28, rac-(2-Cyclopropyl-imidazo[5,1-b]thiazol-3-yl)-(1-m-tolyl-1H-[1,2,3]triazol-4-yl)-methanol], the IC50 is 28.8 nM in assay [1] and > 10200 nM in assay [2].
As for `CCc1sc2cncn2c1C(O)c1cn(-c2ccc(S(=O)(=O)N3CCCC3)cc2)nn1` (racemic) [Example 242, rac-(2-Ethyl-imidazo[5,1-b]thiazol-3-yl)-{1-[4-(pyrrolidine-1-sulfonyl)-phenyl]-1H-[1,2,3]triazol-4-yl}-methanol], the IC50 in assay [1] is 139 nM; in assay [2], > 10200 nM.
`O=c1[nH]c2ccc(-n3cc(C(O)c4c(C5CC5)sc5cncn45)nn3)cc2[nH]1` (racemic) [Example 194, rac-5-{4-[(2-Cyclopropyl-imidazo[5,1-b]thiazol-3-yl)-hydroxy-methyl]-[1,2,3]triazol-1-yl}-1,3-dihydro-benzoimidazol-2-one]: the IC50 is 70.4 nM in assay [1] and > 10200 nM in assay [2].
The matching figures for `CCc1sc2cncn2c1C(O)c1cn(-c2ccc(C(=O)NCCC#N)cc2)nn1` (racemic) [Example 130, rac-N-(2-Cyano-ethyl)-4-{4-[(2-ethyl-imidazo[5,1-b]thiazol-3-yl)-hydroxy-methyl]-[1,2,3]triazol-1-yl}-benzamide]: 13.1 nM and > 10200 nM.
For the compound `OC(c1cn(-c2ccccc2)nn1)c1c(C(F)(F)F)sc2cncn12` (racemic) [Example 133, rac-(1-Phenyl-1H-[1,2,3]triazol-4-yl)-(2-trifluoromethyl-imidazo[5,1-b]thiazol-3-yl)-methanol], the IC50 in assay [1] was 24.2 nM; in assay [2], > 10200 nM.
The matching figures for `CC=Cc1sc2cncn2c1C(O)c1cn(-c2ccc(OC)cc2)nn1` (racemic) [Example 263, rac-[1-(4-Methoxy-phenyl)-1H-[1,2,3]triazol-4-yl]-[((E)-2-(prop-1-enyl))-imidazo[5,1-b]thiazol-3-yl]-methanol]: 20.5 nM and 830 nM.
For `N#Cc1ccc(-n2cc(C(O)c3c(C4CC4)sc4cncn34)nn2)cc1` (racemic) [Example 11, rac-4-{4-[(2-Cyclopropyl-imidazo[5,1-b]thiazol-3-yl)-hydroxy-methyl]-[1,2,3]triazol-1-yl}-benzonitrile] the same measures were 39.6 nM and > 10200 nM.
The matching figures for `OC(c1ccc(-c2ccc3[nH]ccc3c2)s1)c1c(C2CC2)sc2cncn12` (racemic) [Example 176, rac-(2-Cyclopropyl-imidazo[5,1-b]thiazol-3-yl)-[5-(1H-indol-5-yl)-thiophen-2-yl]-methanol]: 260 nM and > 10200 nM.
Take `OC(c1ccc(-c2cccc(C(F)(F)F)c2)s1)c1c(C2CC2)sc2cncn12` (racemic) [Example 165, rac-(2-Cyclopropyl-imidazo[5,1-b]thiazol-3-yl)-[5-(3-trifluoromethyl-phenyl)-thiophen-2-yl]-methanol]: the IC50 in assay [1] is 716 nM; in assay [2] it was > 10200 nM.
Turning to `OC(c1cn(-c2ccc(OCc3ccccc3)cc2)nn1)c1c(C2CC2)sc2cncn12` (racemic) [Example 45, rac-[1-(4-Benzyloxy-phenyl)-1H-[1,2,3]triazol-4-yl]-(2-cyclopropyl-imidazo[5,1-b]thiazol-3-yl)-methanol], the IC50 in assay [1] is 46.4 nM; in assay [2], > 10200 nM.
Regarding `Oc1ccc(-n2cc(C(O)c3c(C4CC4)sc4cncn34)nn2)cc1OC(F)(F)F` (racemic) [Example 210, rac-4-{4-[(2-Cyclopropyl-imidazo[5,1-b]thiazol-3-yl)-hydroxy-methyl]-[1,2,3]triazol-1-yl}-2-trifluoromethoxy-phenol], the results for the IC50 in assay [1] and in assay [2] were 23.5 nM and > 10200 nM, respectively.

The values above are taken from patent US20200405696A1, “INHIBITORS OF INDOLEAMINE 2,3-DIOXYGENASE AND/OR TRYPTOPHAN 2,3-DIOXYGENASE” (IDORSIA PHARMACEUTICALS LTD, priority 2018, published 2020).
